Data from US5087639A, “Preventing CNS toxicity of acivicin when used with four large neutral amino acids” (The Upjohn Company, priority 1988, dated 1992).
Where two headings read alike, the source gives them in different places.

Key:
cancer patients [1] = conditions: clinical trials conducted to date; cited from earlier work
[2] = Plasma pharmacokinetics of acivicin in cats with concomitant infusion; conditions: cat, in vivo, ip, 60 mg/kg, mean ± s.d.; for Vd/F: read-out: Varea
Protocol: Blood was sampled through the blood sampling cannula at -4.0, 0, +4, +6, +9, +12, +18, +24 and +30 hours relative to the acivicin dose, for determination of acivicin concentration by microbiological assay.

cancer patients [3] = conditions: cited from earlier work
tumor cell = conditions: laboratory data; cited from earlier work
Acivicin-Treated Cats = assay: Incidence of toxic symptoms (mydriasis, vomiting, sedation, ataxia) in acivicin-treated cats with concomitant infusion
[4] = acivicin 60 mg/kg i.p. plus infusion of the named solution, label Acivicin = saline infusion, affected/treated cats

For N[C@H](C(=O)O)[C@@H]1CC(Cl)=NO1 [Acivicin, (αS,5S)-α-amino-3-chloro-2-isoxazoline-5-acetic acid], the “efficacy in clinical trials” value (cancer patients [1]) is given as “marginal”, the CL/F ([2]; Aminosyn infusion, n=2) is given as 1.83 mL/min/kg and the half-life ([2]; Aminosyn infusion, n=2) is given as 4.3 ± 0.7 h. It also gave a k el ([2]; Aminosyn infusion, n=2) of 4.44e-05 s⁻¹, a Vd/F ([2]; Aminosyn infusion, n=2) of 0.684 ± 0.064 L/kg and a CL/F ([2]; LNAA infusion, n=3) of 1.05 mL/min/kg. The half-life ([2]; LNAA infusion, n=3) was 8.3 ± 0.8 h, the k el ([2]; LNAA infusion, n=3) was 2.33e-05 s⁻¹ and the Vd/F ([2]; LNAA infusion, n=3) was 0.75 ± 0.081 L/kg. It also gave a CL/F ([2]; OAA infusion, n=3) of 1.28 mL/min/kg, a half-life ([2]; OAA infusion, n=3) of 7.4 ± 1.06 h and a k el ([2]; OAA infusion, n=3) of 2.64e-05 s⁻¹. The Vd/F ([2]; OAA infusion, n=3) was 0.814 ± 0.061 L/kg, the CL/F ([2]; Saline infusion, n=3) was 1.28 mL/min/kg and the half-life ([2]; Saline infusion, n=3) was 8.4 ± 2.5 h. For the same compound, the k el ([2]; Saline infusion, n=3) was 2.42e-05 s⁻¹, the Vd/F ([2]; Saline infusion, n=3) was 0.893 ± 0.143 L/kg and the CL/F ([2]; second line "aminosyn", n=4) was 0.918 mL/min/kg. It also gave a half-life ([2]; second line "aminosyn", n=4) of 8.18 ± 1.36 h, a k el ([2]; second line "aminosyn", n=4) of 2.58e-05 s⁻¹ and a Vd/F ([2]; second line "aminosyn", n=4) of 0.625 ± 0.0123 L/kg. The CL/F ([2]; second line "saline", n=4) was 1.85 mL/min/kg, the half-life ([2]; second line "saline", n=4) was 2.6 ± 0.41 h and the k el ([2]; second line "saline", n=4) was 7.64e-05 s⁻¹. For the same compound, the Vd/F ([2]; second line "saline", n=4) was 0.408 ± 0.0331 L/kg, the “CNS effects in humans” value (cancer patients [3]; dose-limiting) was “reversible, dose-limiting CNS effects such as sedation, ataxia, personality changes and hallucinations” and the dose-limiting toxicity (cancer patients [3]; previous Phase I and II trials) was “neurotoxicity which is dose-dependent and reversible”. The “dependence of cytotoxicity on tumor cell exposure concentration and duration” value (tumor cell) was “strong dependence”, the incidence of ataxia (Acivicin-Treated Cats; [4]) was 4/4 and the incidence of mydriasis (Acivicin-Treated Cats; [4]) was 4/4. The incidence of sedation (Acivicin-Treated Cats; [4]) was 4/4, the incidence of vomiting (Acivicin-Treated Cats; [4]) was 1/4 and the “ataxia and sedation (in words)” value (Acivicin-Treated Cats; acivicin-treated cats, label Acivicin = saline-treated) was “both ataxic sedated”.
